Assay results taken from publication PMC4335062, “Data-Driven Prediction and Design of bZIP Coiled-Coil Interactions” (PLoS Computational Biology, 2015).
Where two headings read alike, the source gives them in different places. Where no end group is shown, it is not given here.

Assays:
Experiment in all cases: Direct-binding FRET assay
HLF = target: T1, HLF (Homo sapiens, UniProt Q16534); conditions: read-out: Kd
T1 construct: made in house
T1 sequence (Q16534 225-288 limits assumed): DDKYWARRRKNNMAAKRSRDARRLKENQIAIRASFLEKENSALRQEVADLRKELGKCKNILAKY
Procedure: (§1) The direct binding assay was performed manually in 384-well plates and is similar to a previously described assay. Wells were filled with 20 μL of 1 mM TCEP-HCl. A 4 μM stock of acceptor protein was made fresh in 1 mM TCEP-HCl, and 20 μL was titrated in 2-fold dilutions over the wells. […] The direct-binding FRET data were fit as previously described. Briefly, the Kd of the designed peptide homodimer was experimentally determined and used with previously determined target homodimer Kd values to determine the heterodimer Kd. The homodimer Kd values used for the human bZIPs were from; experiments done by […] et al. used the same protein constructs for the human bZIP proteins, the same buffer conditions, and the same assay. The fitting used a system of ordinary differential equations to describe the concentrations of homo and heterodimers formed by the donor (D) and acceptor (A) as a function of the heterodimer Kd. MATLAB was used to simulate the binding experiment for different Kd values, and the value that gave the best agreement between simulation and experiment was assigned. A minimum 15% change in the donor fluorescence upon titrating the acceptor peptide from 0 to 1000 nM was required for a fit to be attempted. If this minimum was not met, the interaction was classified as “NS” for no signal change. […] These interactions were marked “AS” to indicate anomalous signal. We attributed this to interactions between the peptides, the dyes and the walls of the assay plates at low concentrations. These curves could not be fit, given their unusual shapes at low concentrations of acceptor. For such curves, we removed the first five points and re-fit the data. […] One example of this is increasing concentrations of acceptor causing an increase in donor fluorescence.

ATF5 = target: T2, ATF5 (Homo sapiens, UniProt Q9Y2D1); conditions: read-out: Kd
T2 construct: made in house
T2 sequence (Q9Y2D1 208-271 limits assumed): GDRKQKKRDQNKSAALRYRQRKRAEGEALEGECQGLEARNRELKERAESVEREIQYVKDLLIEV
Procedure: as §1

JUNB = target: T3, JUNB (Homo sapiens, UniProt P17275); conditions: read-out: Kd
T3 construct: made in house
T3 sequence (P17275 268-331 limits assumed): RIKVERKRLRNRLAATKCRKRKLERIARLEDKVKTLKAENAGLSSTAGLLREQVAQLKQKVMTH
Procedure: as §1

NFIL3 = target: T4, NFIL3 (Homo sapiens, UniProt Q16649); conditions: read-out: Kd
T4 construct: made in house
T4 sequence (Q16649 73-136 limits assumed): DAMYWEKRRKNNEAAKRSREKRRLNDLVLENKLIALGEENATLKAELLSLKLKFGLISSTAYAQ
Procedure: as §1

CREB3 = target: T5, CREB3 (Homo sapiens, UniProt O43889); conditions: mean or single, read-out: Kd
T5 construct: made in house
T5 sequence (O43889 150-213 limits assumed): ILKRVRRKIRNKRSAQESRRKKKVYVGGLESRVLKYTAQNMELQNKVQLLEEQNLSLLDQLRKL
Procedure: as §1

BACH1 = BACH1 (Homo sapiens, UniProt O14867); set-up: made in house; conditions: read-out: Kd
Procedure: as §1

BACH2 = BACH2 (Homo sapiens, UniProt Q9BYV9); set-up: made in house; conditions: read-out: Kd
Procedure: as §1

ATF6 = ATF6 (Homo sapiens, UniProt P18850); set-up: made in house; conditions: read-out: Kd
Procedure: as §1

MAF = MAF (Homo sapiens, UniProt O75444); set-up: made in house; conditions: mean or single, read-out: Kd
Procedure: as §1

NFE2L1 = NFE2L1 (Homo sapiens, UniProt Q14494); set-up: made in house; conditions: read-out: Kd
Procedure: as §1

MAFB = MAFB (Homo sapiens, UniProt Q9Y5Q3); set-up: made in house; conditions: mean or single, read-out: Kd
Procedure: as §1

[1] = 4°C, C-terminal fluorescein design as donor, TAMRA target titrated
[2] = 4°C, C-terminal rhodamine design, mean or single
[3] = 4°C, N-terminal rhodamine design, mean or single
[4] = 23°C, C-terminal fluorescein design as donor, TAMRA target titrated
[5] = 23°C, C-terminal rhodamine design, mean or single
[6] = 23°C, N-terminal rhodamine design, mean or single
[7] = 37°C, C-terminal fluorescein design as donor, TAMRA target titrated
[8] = 37°C, C-terminal rhodamine design, mean or single
[9] = 37°C, N-terminal rhodamine design, mean or single
[10] = 23°C, C-terminal rhodamine design, repeat 1
[11] = 23°C, C-terminal rhodamine design, repeat 2
[12] = 23°C, N-terminal rhodamine design, repeat 1
[13] = 37°C, C-terminal rhodamine design, repeat 1
[14] = 37°C, C-terminal rhodamine design, repeat 2
[15] = 37°C, C-terminal rhodamine design, repeat 3
[16] = 37°C, N-terminal rhodamine design, repeat 1
[17] = 37°C, N-terminal rhodamine design, repeat 2
[18] = 4°C, C-terminal rhodamine design
[19] = 4°C, N-terminal rhodamine design
[20] = 23°C, C-terminal rhodamine design
[21] = 23°C, N-terminal rhodamine design
[22] = 37°C, C-terminal rhodamine design
[23] = 37°C, N-terminal rhodamine design
[24] = 23°C, N-terminal rhodamine design, repeat 2

Sequence of NFE2L1 (Q14494 654-717 limits assumed): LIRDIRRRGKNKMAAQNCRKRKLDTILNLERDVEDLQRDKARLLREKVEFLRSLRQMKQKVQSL
Sequence of BACH2 (Q9BYV9 646-709 limits assumed): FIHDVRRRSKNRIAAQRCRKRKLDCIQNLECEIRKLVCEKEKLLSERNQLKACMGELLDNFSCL
Sequence of BACH1 (O14867 557-620 limits assumed): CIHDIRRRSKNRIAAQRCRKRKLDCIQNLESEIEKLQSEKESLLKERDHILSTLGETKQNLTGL
Sequence of ATF6 (P18850 306-369 limits assumed): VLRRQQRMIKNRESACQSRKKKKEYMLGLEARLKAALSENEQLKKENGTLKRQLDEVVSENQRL

Sequence “NQIKTLRTRLSKLRKDNLQLEKDIANLERKAKDLRAEKEQLEYEL [ATF4-d1]” has a Kd (HLF; [1]) of over 1000 nM, a Kd (HLF; [2]) of over 5000 nM and a Kd (HLF; [3]) of over 1000 nM. The Kd (HLF; [4]) was over 1000 nM, the Kd (HLF; [5]) was over 1000 nM and the Kd (HLF; [6]) was over 1000 nM. For the same sequence, the Kd (HLF; [7]) was over 1000 nM, the Kd (HLF; [8]) was over 5000 nM and the Kd (HLF; [9]) was over 1000 nM. The Kd (ATF5; [1]) was 0.0355 µM, the Kd (ATF5; [2]) was over 5 µM and the Kd (ATF5; [5]) was over 5 µM. The Kd (ATF5; [10]) was over 5 µM, the Kd (ATF5; [11]) was over 5 µM and the Kd (ATF5; 23°C, C-terminal rhodamine design, repeat 3) was over 5 µM. It also gave a Kd (ATF5; [12]) of over 1 µM, a Kd (ATF5; [7]) of over 1 µM and a Kd (ATF5; [8]) of over 5 µM. It also gave a Kd (ATF5; [13]) of over 5 µM, a Kd (ATF5; [14]) of over 5 µM and a Kd (ATF5; [15]) of over 5 µM. It also gave a Kd (ATF5; [9]) of over 1 µM, a Kd (ATF5; [16]) of over 1 µM and a Kd (ATF5; [17]) of over 1 µM. The Kd (ATF5; 37°C, N-terminal rhodamine design, repeat 3) was over 1 µM, the Kd (JUNB; [1]) was over 1000 nM and the Kd (JUNB; [2]) was over 1000 nM. The Kd (JUNB; [3]) was over 1000 nM, the Kd (JUNB; [4]) was over 1000 nM and the Kd (JUNB; [5]) was over 1000 nM. For the same sequence, the Kd (JUNB; [6]) was over 1000 nM, the Kd (JUNB; [7]) was over 1000 nM and the Kd (JUNB; [8]) was over 1000 nM. For the same sequence, the Kd (JUNB; [9]) was over 1000 nM, the Kd (NFIL3; [1]) was 42.4 nM and the Kd (NFIL3; [2]) was 22.8 nM. The Kd (NFIL3; [3]) was over 1000 nM, the Kd (NFIL3; [4]) was over 1000 nM and the Kd (NFIL3; [10]) was over 5000 nM. It also gave a Kd (NFIL3; [11]) of over 5000 nM, a Kd (NFIL3; [6]) of over 1000 nM and a Kd (NFIL3; [7]) of over 1000 nM. The Kd (NFIL3; [8]) was over 5000 nM, the Kd (NFIL3; [13]) was over 5000 nM and the Kd (NFIL3; [14]) was over 5000 nM. The Kd (NFIL3; [15]) was over 5000 nM, the Kd (NFIL3; [9]) was over 1000 nM and the Kd (CREB3; [18]) was over 1000 nM. The Kd (CREB3; [19]) was over 1000 nM, the Kd (CREB3; [20]) was over 1000 nM and the Kd (CREB3; [21]) was over 1000 nM. It also gave a Kd (CREB3; [22]) of over 5000 nM, a Kd (CREB3; [23]) of over 1000 nM and a Kd (BACH1; [1]) of over 1000 nM. For the same sequence, the Kd (BACH1; [2]) was over 5000 nM, the Kd (BACH1; [4]) was over 1000 nM and the Kd (BACH1; [5]) was over 1000 nM. For the same sequence, the Kd (BACH1; [12]) was over 1000 nM, the Kd (BACH1; [24]) was over 5000 nM and the Kd (BACH1; [7]) was over 1000 nM. It also gave a Kd (BACH1; [8]) of over 1000 nM, a Kd (BACH1; [9]) of over 1000 nM and a Kd (BACH1; [16]) of over 1000 nM. The Kd (BACH1; [17]) was over 1000 nM, the Kd (BACH2; [1]) was over 1000 nM and the Kd (BACH2; [2]) was over 5000 nM. For the same sequence, the Kd (BACH2; [3]) was over 1000 nM, the Kd (BACH2; [4]) was over 5000 nM and the Kd (BACH2; [5]) was over 1000 nM. The Kd (BACH2; [6]) was over 5000 nM, the Kd (BACH2; [7]) was over 1000 nM and the Kd (BACH2; [8]) was over 5000 nM. For the same sequence, the Kd (BACH2; [9]) was over 1000 nM, the Kd (ATF6; [1]) was over 1000 nM and the Kd (ATF6; [2]) was over 1000 nM. The Kd (ATF6; [3]) was over 1000 nM, the Kd (ATF6; [4]) was over 1000 nM and the Kd (ATF6; [5]) was over 1000 nM. It also gave a Kd (ATF6; [6]) of over 1000 nM, a Kd (ATF6; [7]) of over 1000 nM and a Kd (ATF6; [8]) of over 1000 nM. The Kd (ATF6; [9]) was over 1000 nM, the Kd (MAF; [18]) was over 5000 nM and the Kd (MAF; [19]) was over 1000 nM. The Kd (MAF; [20]) was over 5000 nM, the Kd (MAF; [21]) was over 1000 nM and the Kd (MAF; [22]) was 460 nM. The Kd (MAF; [23]) was over 1000 nM, the Kd (NFE2L1; [2]) was over 5000 nM and the Kd (NFE2L1; 4°C, N-terminal rhodamine design, repeat 1) was over 1000 nM. The Kd (NFE2L1; 4°C, N-terminal rhodamine design, repeat 2) was over 1000 nM, the Kd (NFE2L1; [5]) was over 5000 nM and the Kd (NFE2L1; [6]) was over 1000 nM. It also gave a Kd (NFE2L1; [12]) of over 1000 nM, a Kd (NFE2L1; [24]) of over 1000 nM and a Kd (NFE2L1; [8]) of over 1000 nM. For the same sequence, the Kd (NFE2L1; [9]) was over 1000 nM, the Kd (NFE2L1; [16]) was over 1000 nM and the Kd (NFE2L1; [17]) was over 1000 nM. The Kd (MAFB; [18]) was over 5000 nM, the Kd (MAFB; [19]) was over 1000 nM and the Kd (MAFB; [20]) was over 5000 nM. For the same sequence, the Kd (MAFB; [21]) was over 1000 nM, the Kd (MAFB; [22]) was 402 nM and the Kd (MAFB; [23]) was over 1000 nM.
